Test results as given in patent US20040229785A1, “Screening methods to identify treatments for autoimmune disease” (priority 2002, published 2004).
“And” between values parts separate entries of the source, which are not always exact repeats. Equal values may be shown once.

Experiments:
NOD splenocytes = test: Annexin V/PI flow cytometry of cultured splenocytes with and without TNF-α; assay type: cell-based, mouse; conditions: for TNF sensitivity of T cell subpopulation: FIG. 13
Procedure: (§1) Flow cytometry can be performed using a Facscalibur flow cytometer (BD Biosciences, San Jose, Calif.). Samples were incubated for 18-24 hours in the absence or presence of TNF-α (20-50 ng/mL), after which apoptotis can be determined by direct detection using FITC-conjugated annexin V and Propidium Iodide (PI) from R&D Systems (TACS Annexin V-FITC Apoptosis Detection Kit; Minneapolis, Minn.). Early apoptotic cells were defined as positive for annexin V only, whereas late apoptotic cells were defined as being positive for both PI and annexin V.
(§2) In order to obtain high viability for those assays using splenocytes, gentle treatment throughout the isolation procedure is important. Optimized results were obtained as follows: a mouse is sacrificed by cervical dislocation and the spleen removed via an abdominal incision. The spleen is then gently inflated with several mLs of RPMI/10% FBS using a 22 gauge needle. Any fluid leaking out of the spleen is collected as it contains splenocytes. A small opening is created on one end of the spleen and the splenic tissue expelled through this opening with a “scraping” motion using blunt tipped forceps. The resulting clumps of tissue are homogenized by repeated gentle pipetting. The crude splenocyte preparation is then filtered through a 40 micron mesh filter.
(§3) The spleen contains a variety of different immune cells. These can be distinguished further into T-cells (mostly CD4 and CD8) and non-T-cells (mostly B-cells and macrophages). Magnetic separation methods were used to sort the splenocytes into T-cell and non-T-cell fractions. For the isolation of T-cells, Miltenyi Biotec's Pan T magnetic bead cocktail were used. This cocktail contains antibodies against CD11b, CD45R, DX5, and Ter-119. As a result, all Non-T cells, i.e. B cells, NK cells, dendritic cells, macrophages, granulocytes, and erythroid cells; are depleted from the sample, leaving only T-cells. For the isolation of non-T-cells, a mixture of magnetic beads directed against CD90 and Ter-119 were used. This depletes all T-cells and erythroid cells, leaving only the non-T cells.
(§4) The difference in sensitivity between B6 and NOD splenocytes to TNF-α was then examined. B6 and NOD splenocytes were plated out in U-bottom shaped 96 well plates at a density of 25,000 cells per well in 100 μL of medium, with and without 50 ng/mL TNF-α added. The cells were cultured for 24 hrs, stained with Annexin V and PI, and analyzed by flow cytometry (FIG. 10).
(§5) After culture at 37° C. for 26 hours, the cell death of NOD vs. B6 T cells and NOD vs. B6 non T cells was quantified by AnnexinV and PI (FIG. 11). Late death is shown for cells obtained from a single NOD and a single B6 mouse.
(§6) Samples obtained from a single NOD and a single B6 mouse were also examined for cell death by PI staining alone (FIG. 12) after culturing at 32° C. for 18 hours.
(§7) Therefore, Annexin V binding/PI uptake measurements were used to measure specific cellular lineages in the human PBLs based on fluorescence activated cell scanning (FACS) analysis. PBLs were stained with anti-CD3, anti-Annexin V, and anti-PI antibodies immediately after isolation. After 12 or 24 hours in culture in the presence or absence of TNF-α, cells were analyzed by FACS for Annexin V/PI binding to defined lineages. Over the course of these studies several important differences emerged in the behavior of human PBLs compared to NOD splenocytes (Table 1). First, human PBL isolates contained a large amount of cell fragments and debris, both at baseline and after culture. This finding was not evident in the NOD splenocyte preparations. Comparing the responses of non-diabetic C57BL/6 murine splenocytes to non-diabetic humans PBLs, the viability of C57BL/6 splenocytes remained constant during a 24 hour period of culture in vitro, whereas a progressive increase in spontaneous cell death of human PBLs was regularly observed over this interval. […]

B6 (C57BL/6) splenocytes = test: as above; assay type: cell-based, mouse
Procedure: as §1, §2, §3, §4, §5, §6, §7

[1] = system: PBLs from Type I diabetics; test: Trypan Blue uptake by human PBLs incubated with TNF-α; assay type: cell-based; conditions: TNF-α 20 ng/mL, 24 hours, FIG. 14A
Procedure: (§8) In an initial set of assays for characterizing the response of PBLs from human diabetics and control subjects to incubation with TNF-α or other candidate compounds in vitro, uptake of the dye Trypan Blue, a relatively nonspecific measure of cell death, was used. […] However, there appeared to be an inverse correlation between the age-at-onset and the extent of the TNF-α induced-increase in Trypan Blue uptake by the PBLs (FIG. 14C).

[2] = system: PBLs from non-diabetic subjects; test: as above; assay type: cell-based; conditions: TNF-α 20 ng/mL, 24 hours, FIG. 14B
Procedure: as §8

[3] = system: PBLs from Type I diabetics; test: FACS Annexin V binding/PI uptake in human PBLs cultured with or without TNF-α; assay type: cell-based; parameters: increase in Annexin V binding to CD3+ PBLs in response to TNF-α: dose or concentration left out as unconfirmed
Procedure: Therefore, Annexin V binding/PI uptake measurements were used to measure specific cellular lineages in the human PBLs based on fluorescence activated cell scanning (FACS) analysis. PBLs were stained with anti-CD3, anti-Annexin V, and anti-PI antibodies immediately after isolation. After 12 or 24 hours in culture in the presence or absence of TNF-α, cells were analyzed by FACS for Annexin V/PI binding to defined lineages. Over the course of these studies several important differences emerged in the behavior of human PBLs compared to NOD splenocytes (Table 1). First, human PBL isolates contained a large amount of cell fragments and debris, both at baseline and after culture. This finding was not evident in the NOD splenocyte preparations. Comparing the responses of non-diabetic C57BL/6 murine splenocytes to non-diabetic humans PBLs, the viability of C57BL/6 splenocytes remained constant during a 24 hour period of culture in vitro, whereas a progressive increase in spontaneous cell death of human PBLs was regularly observed over this interval. This differential response of cell viability to culture in vitro may possibly reflect an intrinsic fragility of human PBLs and/or the greater rigors of cell isolation required for purification of human PBLs as compared with murine splenocytes. […] Another difference between PBLs from human Type I diabetics and NOD splenocytes is that the evolution of TNF-α-induced apoptosis in NOD splenocytes occurs with a predictable time course that is much more rapid than that seen in PBLs from Type I diabetics. […] By 24 hours, there was little further increase in the fraction of cells binding Annexin V. However, nuclear binding of PI to NOD splenocytes had increased substantially reflecting a further progression of the apoptotic program. By contrast, cell death in response to TNF-α in human CD3 positive-PBLs, when evident, evolved much more slowly. For example, increased Annexin V binding was rarely seen after 12 hours and at 24 hours, increased Annexin V uptake, when present, was generally not accompanied by increased PI uptake.
The results generated using CD3, CD19, and CD11b positive PBLs isolated from 33 Type I diabetics and from control subjects (see Table 1) support the following conclusions. […] In these studies, PBLs were processed in parallel from a Type I diabetic and an age/sex matched control non-diabetic subject. Immediately after isolation, the PBLs were incubated with Annexin V and propidium iodide and subjected to FACS analysis (left column of flow charts; “before incubation”). […] The cells were then incubated in the absence (center panels) or presence (right panels) of TNF-α (20 ng/mL). After 12 hours, these cells were stained with Annexin V and PI and analyzed by FACS.

[4] = system: PBLs from non-diabetic control subjects; test: as above; assay type: cell-based
Procedure: as §7
The results generated using CD3, CD19, and CD11b positive PBLs isolated from 33 Type I diabetics and from control subjects (see Table 1) support the following conclusions. […] After 12 hours, these cells were stained with Annexin V and PI and analyzed by FACS.

[5] = system: CD3+ T cells from a patient with Type I diabetes; assay type: cell-based, human
Description: (§9) II. Remove red blood cells and collect lymphocyte subsets:
(§10) 11. Acquire timed and/or absolute count/volume data
(§11) The automated method described herein has also been used for the assay of cell viability in a human patient. Blood samples were obtained from a patient with Type I diabetes and from a non-diabetic control subject. During the assay procedure, a CD3^+ T cell subset was isolated from each (Step 11.12 from the protocol). The cells were then contacted with TNF-α and cell viability was measured and compared to that found in control samples which were not contacted with TNF-α.

[6] = system: CD3+ T cells from a non-diabetic control subject; assay type: cell-based, human
Description: as §9, §10, §11

[7] = system: B6 mouse splenocytes (T cells, non-T cells)
Procedure: (§12) Following is an optimized protocol for the automated analysis of cell sensitivity to compounds that induce cell death via apoptosis or necrosis.
(§13) Place on AutoMACS cell sorter for CD-subset separation (magnetic bead separation method or direct RBC lysis)
(§14) Pipette 100 μL cell suspension (25,000 cells) into each 96-well plate well, ×3 for triplicates
(§15) Add 5 μL of reagent (e.g., TNF-α, another induced or cell death, or mixtures containing up to 10 different chemical reagent combinations for the induction of cell death), to each well to be treated, ×3 for triplicates.
(§16) For flow cytometry (analysis), remove 90 μL of re-suspended sample material from each sample well
(§17) Add 90 μl of cell stain solution to each sample flow test tube above to stain cells for identification
(§18) The sensitivity of T cell populations from NOD mice were re-examined using the automated assay described above.
(§19) Non-T cells from NOD and B6 mice were also examined for sensitivity to TNF-α-induced cell death.

[8] = system: NOD mouse splenocytes (T cells, non-T cells)
Procedure: as §12, §13, §14, §15, §16, §17, §18, §19

In the case of TNF-α, the “TNF sensitivity of T cell subpopulation” value (NOD splenocytes; NOD CD4+ T cells) is reported as “not TNF sensitive”, the “TNF sensitivity of T cell subpopulation” value (NOD splenocytes; NOD CD8+ T cells) is reported as “greatest TNF sensitivity” and the “cell death of T cells by PI staining alone on exposure to TNF-α” value (NOD splenocytes; NOD T cells, 32° C., 18 hours, single mouse, FIG. 12) is reported as “death of a subpopulation of T cells”. The “late cell death of T cells by AnnexinV and PI on exposure to TNF-α” value (NOD splenocytes; NOD T cells, 37° C., 26 hours, single mouse, FIG. 11) was “further accelerated”, the “After culture with THF-α (Mean % cell death ± SE)” value (NOD splenocytes; NOD mouse, overnight early T-cell death, n=5 pairs) was 32.9 ± 3.97% and the “Annexin V binding” value (NOD splenocytes; NOD splenocytes, 12-hour incubation with TNF-α) was “clear increase in Annexin V binding”. For the same substance, the “sensitivity of splenocytes to TNF-α (viability, Annexin V/PI)” value (NOD splenocytes; NOD vs B6 control splenocytes, 50 ng/mL TNF-α, 24 hrs, 25,000 cells per well, FIG. 10) was “much more sensitive”, the “cell death of T cells by PI staining alone on exposure to TNF-α” value (B6 (C57BL/6) splenocytes; B6 T cells, 32° C., 18 hours, single mouse, FIG. 12) was “do not exhibit TNF induced death” and the “late cell death of T cells by AnnexinV and PI on exposure to TNF-α” value (B6 (C57BL/6) splenocytes; B6 T cells, 37° C., 26 hours, single mouse, FIG. 11) was “increased viability”. The “After culture with THF-α (Mean % cell death ± SE)” value (B6 (C57BL/6) splenocytes; C57BL/6 mouse, overnight early T-cell death, n=7 pairs) was 10.2 ± 2.5%, the “extent of Trypan Blue uptake” value [1] was “further increasing Trypan Blue uptake” and the “extent of Trypan Blue uptake” value [2] was “did not significantly alter”. The “staining by Annexin V+PI+” value ([3]; PBLs from a diabetic patient vs matched control, TNF-α 20 ng/mL, 12 hours, FIGS. 15A, 15B) was “increased significantly and selectively”, the “Annexin V staining after culture in the presence of TNF-α” value ([3]; PBLs of two Type I diabetic subjects (FIGS. 15A, 15B), TNF-α 20 ng/mL, 12 hours, without TNF-α 6.5% and 6.2%) was 11.3% and 13.4% and the “increase in Annexin V binding to CD3+ PBLs in response to TNF-α” value ([3]; Type I diabetic vs non-diabetic PBLs, 24 hours, TNF-α) was “greater to a statistically significant extent”. For the same substance, the “After culture with THF-α (Mean % cell death ± SE)” value ([3]; human IDDM patients, overnight early T-cell death, n=33 pairs) was 8.73 ± 0.96%, the “Annexin V staining after culture in the presence of TNF-α” value ([4]; PBLs of two parallel non-diabetic control subjects, TNF-α 20 ng/mL, 12 hours, without TNF-α 5.0 and 9.0%) was 5.5% and 7.5% and the “After culture with THF-α (Mean % cell death ± SE)” value ([4]; human random controls, overnight early T-cell death, n printed 3) was 8.02 ± 0.85%. The “Viability (%)” value [5] was 93%, the “Death (%)” value ([5]; Type I diabetic, CD3+ cells, TNF-α +, without TNF-α 5) was 7% and the “Total Cell Count” value ([5]; Type I diabetic, CD3+ cells, TNF-α +, without TNF-α 1900) was 1900. For the same substance, the “Viability (%)” value [6] was 96%, the “Death (%)” value ([6]; Control subject, CD3+ cells, TNF-α +, without TNF-α 5) was 4% and the “Total Cell Count” value ([6]; Control subject, CD3+ cells, TNF-α +, without TNF-α 2000) was 2200. The “viability of splenocytes treated with TNF-α” value [7] was 69.7%, the “viability change of non-T cells, TNF-α treated vs untreated” value ([7]; B6 mice non-T cells, n=12, FIG. 18B) was 5.0% and the “change in splenocyte viability on TNF-α treatment (increase)” value ([7]; control B6 mice, n=17, T cell populations, FIG. 16) was 1.0+/−0.5. The “change in splenocyte viability on TNF-α treatment (decrease)” value ([8]; NOD diabetic mice, n=17, T cell populations, FIG. 16) was −2.7+/−0.9 and the “viability change of non-T cells, TNF-α treated vs untreated” value ([8]; NOD mice non-T cells, n=12, FIG. 18B) was 4.6%.
